The results in this text go back to ChEMBL document CHEMBL3272338, “Bis-basic-substituted polycyclic aromatic compounds. A new class of antiviral agents. 8. Bis-basic derivatives of carbazole, dibenzofuran, and dibenzothiophene” (1977).

Holding throughout (format): functional
Test [1] concerns Encephalomyocarditis virus. The experiment in a line: Antiviral activity against Encephalomyocarditis virus infected in CF-1 mouse assessed as host survival time ratio at 10 mg/kg, sc administered 28, 22, 2 hrs before and 2 hrs after virus inoculation. As to conditions: route subcutaneous.
Test [2] relates to Encephalomyocarditis virus. The experiment in a line: Antiviral activity against Encephalomyocarditis virus infected in CF-1 mouse assessed as host survival time ratio at 250 mg/kg, po administered via gavage as single dose at 22 to 28 hrs before virus inoculation.
Test [3] deals with Encephalomyocarditis virus. The experiment in a line: Antiviral activity against Encephalomyocarditis virus infected in CF-1 mouse assessed as host survival time ratio at 250 mg/kg, sc administered 28, 22, 2 hrs before and 2 hrs after virus inoculation. As to conditions: route subcutaneous.
Test [4] concerns Encephalomyocarditis virus. The experiment in a line: Antiviral activity against Encephalomyocarditis virus infected in CF-1 mouse assessed as host survival time ratio at 50 mg/kg, po administered via gavage at 28, 22, 2 hrs before and 2 hrs after virus inoculation.
Test [5] relates to Encephalomyocarditis virus. The experiment in a line: Antiviral activity against Encephalomyocarditis virus infected in CF-1 mouse assessed as host survival time ratio at 50 mg/kg, sc administered 28, 22, 2 hrs before and 2 hrs after virus inoculation. Particulars: route subcutaneous.

Turning to `CCCCN(CCCC)CCCOc1ccc2sc3ccc(OCCCN(CCCC)CCCC)cc3c2c1.Cl`, the Ratio is reported as 0.88 in test [1]; 0.88 in test [2]; 0.96 in test [3]; 0.9 in test [4]; 1.14 in test [5].
For the compound `CCN(CC)CCOc1ccc2c(c1)c1cc(OCCN(CC)CC)ccc1n2CC.Cl`, the Ratio is recorded as 1.05 in test [1]; 0.92 in test [2]; 0.85 in test [3]; 0.87 in test [4]; 1.13 in test [5].
Taken in the same sequence, the figures for `CC(C)N(CCOc1ccc2sc3ccc(OCCN(C(C)C)C(C)C)cc3c2c1)C(C)C.Cl` were 1.24, 1, 1.2, 1.18 and 1.3.
For `CCCCN(CCCC)CCCOC(=O)c1ccc2oc3ccc(C(=O)OCCCN(CCCC)CCCC)cc3c2c1.Cl`, the Ratio is reported as 1.06 in test [1], 1.6 in test [3] and 1.4 in test [5].
As for `O=C(CCCN1CCCCC1)c1ccc2oc3ccc(C(=O)CCCN4CCCCC4)cc3c2c1`, the Ratio in test [2] was determined as 1.19; in test [3], 1.81; in test [4], 1.06; in test [5] it was 1.49.
On to `Cl.O=C(CN1CCCCC1)c1ccc2oc3ccc(C(=O)CN4CCCCC4)cc3c2c1`, for which the Ratio in test [1] was determined as 1.11; in test [2] it was 1.41; in test [3], 2.41; in test [4] it was 0.87; in test [5], 1.12.
Turning to `CCN(CC)CCCCc1ccc2c(c1)c1cc(CCCCN(CC)CC)ccc1n2CC.Cl`, the Ratio is given as 1.22 in test [1], 1.17 in test [2], 0.98 in test [4] and 1.22 in test [5].
On to `CC1CCN(CCCC(=O)c2ccc3sc4ccc(C(=O)CCCN5CCC(C)CC5)cc4c3c2)CC1`, for which the Ratio turned out to be 1.22 in test [1]; 1.1 in test [2]; 1.69 in test [3]; 1.06 in test [4]; 1.84 in test [5].
For `C=CCN(CC=C)CCCOC(=O)c1ccc2oc3ccc(C(=O)OCCCN(CC=C)CC=C)cc3c2c1.Cl`, the Ratio in test [1] turned out to be 1.11; in test [3], 1.33; in test [5] it was 1.2.
Regarding `CCN(CC)CCCOC(=O)c1ccc2[nH]c3ccc(C(=O)OCCCN(CC)CC)cc3c2c1.Cl`, the Ratio in test [1] was found to be 1.04; in test [2] it was 1.17; in test [3], 1.47; in test [4], 1.1; in test [5] it was 1.69.
With `CCn1c2ccc(C(=O)CCCN(C)C)cc2c2cc(C(=O)CCCN(C)C)ccc21.O=C(O)/C=C/C(=O)O`, the Ratio was 1.42 in test [1]; 1.06 in test [2]; 1.44 in test [3]; 0.94 in test [4]; 1.63 in test [5].
Take `Cl.c1cc2oc3ccc(OCCCN4CCCCC4)cc3c2cc1OCCCN1CCCCC1`: the Ratio in test [1] was 1.46; in test [2], 1.02; in test [3], 0.63; in test [4], 1.02; in test [5], 1.44.
As to `CC(C)CCN(CCCOC(=O)c1ccc2oc3ccc(C(=O)OCCCN(CCC(C)C)CCC(C)C)cc3c2c1)CCC(C)C`, the Ratio in test [1] came out at 0.91; in test [3] it was 1.11; in test [5], 1.07.
For the compound `Cl.c1cc2sc3ccc(OCCCN4CCCCC4)cc3c2cc1OCCCN1CCCCC1`, the Ratio is on record as 1.34 in test [1]; 1.06 in test [2]; 0.77 in test [3]; 0.98 in test [4]; 1.94 in test [5].
On to `O=C(CCCN1CCCCC1)c1ccc2[nH]c3ccc(C(=O)CCCN4CCCCC4)cc3c2c1`, for which the Ratio is reported as 1.22 in test [1]; 0.88 in test [2]; 1 in test [3]; 0.86 in test [4]; 0.96 in test [5].
In the case of `CN(C)CCOc1ccc2sc3ccc(OCCN(C)C)cc3c2c1.Cl`, the Ratio in test [1] is recorded as 1.09; in test [2], 1.06; in test [3] it was 0.91; in test [4] it was 0.98; in test [5] it was 1.13.
The matching figures for `Cl.c1cc2oc3ccc(OCCN4CCCCC4)cc3c2cc1OCCN1CCCCC1`: 0.94, 1.04, 1.02, 0.85 and 1.25.
The matching figures for `CC(C)N(CCOc1ccc2oc3ccc(OCCN(C(C)C)C(C)C)cc3c2c1)C(C)C`: 0.88, 0.88, 1.14, 0.96 and 1.24.
The matching figures for `CCn1c2ccc(OCCCN(C)C)cc2c2cc(OCCCN(C)C)ccc21.Cl`: 0.92, 0.88, 0.52, 0.9 and 1.1.
As to `CN(C)CCCCC(C)(C)COC(=O)c1ccc2c(c1)sc1ccc(C(=O)OCC(C)(C)CCCN(C)C)cc12.Cl`, the Ratio in test [1] is on record as 1.07; in test [3], 1.11; in test [5], 1.42.
The matching figures for `CCn1c2ccc(CCCCN3CCCCC3)cc2c2cc(CCCCN3CCCCC3)ccc21.Cl`: 1.28, 0.57 and 1.45.
Taken in the same sequence, the figures for `CCCCN(CCCC)CCCNC(=O)c1ccc2oc3ccc(C(=O)NCCCN(CCCC)CCCC)cc3c2c1.O=C(O)CC(O)(CC(=O)O)C(=O)O` were 1.17, 0.85 and 1.24.
As to `Cl.O=C(OCCCN1CCCCC1)c1ccc2c(c1)sc1ccc(C(=O)OCCCN3CCCCC3)cc12`, the Ratio worked out at 1.4 in test [1], 1.55 in test [3] and 1.36 in test [5].
For `CCN(CC)CCOC(=O)c1ccc2c(c1)sc1ccc(C(=O)OCCN(CC)CC)cc12.Cl`, the Ratio in test [1] stood at 1.14; in test [3], 1.2; in test [5], 1.04.
Consider `CCN(CC)CCCOC(=O)c1ccc2c(c1)c1cc(C(=O)OCCCN(CC)CC)ccc1n2CC.Cl`, for which the Ratio in test [1] is reported as 1.33; in test [2], 0.75; in test [3], 1.87; in test [5], 1.74.
In the case of `CCN(CC)CCCOC(=O)c1ccc2sc3ccc(C(=O)OCCCN(CC)CC)cc3c2c1.Cl`, the Ratio worked out at 1.3 in test [3] and 1.77 in test [5].
With `CCCN(CCC)CCCOC(=O)c1ccc2oc3ccc(C(=O)OCCCN(CCC)CCC)cc3c2c1.Cl`, the Ratio in test [1] stood at 0.96; in test [3] it was 1.88; in test [5], 1.21.
Turning to `CC(C)CCN(CCCOC(=O)c1ccc2c(c1)sc1ccc(C(=O)OCCCN(CCC(C)C)CCC(C)C)cc12)CCC(C)C.Cl`, the Ratio in test [1] came to 0.96; in test [3] it was 1.11; in test [5], 0.98.
Consider `CCN(CC)CCCOC(=O)c1ccc2oc3ccc(C(=O)OCCCN(CC)CC)cc3c2c1.Cl`, for which the Ratio is listed as 1.22 in test [3] and 1.19 in test [5].
